Experimental data reported in patent publication US6855728B2, “Small-molecule modulators of hepatocyte growth factor / scatter factor activities” (North Shore-Long Island Jewish Health System, priority 2001, dated 2005).

System: Endothelial cells (HUVECs)
Experiment: Endothelial cell (HUVEC) proliferation assay, 3H thymidine incorporation, compound without added growth factor
Format: cell-based, human
Conditions: for activation at 5 µg/mL / activation at 10 µg/mL: Homo sapiens, HUVEC, 24 h; for activation at 5 µg/mL / Stimulation/Inhibition at 5 microg/ml (result in words) / Stimulation at 5 microg/ml: 5 microg/ml; for activation at 5 µg/mL / activation at 10 µg/mL / Stimulation at 5 microg/ml / Stimulation at 10 microg/ml: stimulation of endothelial cell proliferation; for Stimulation/Inhibition at 10 microg/ml (result in words) / activation at 10 µg/mL / Stimulation at 10 microg/ml: 10 microg/ml
Description: Cell proliferation assays Endothelial cells (HUVECs) were seeded in 48 well plates at a density of 10,000 to 20,000 cells per well in the normal growth medium (EGM-2-Clonetics) containing 2% fetal bovine serum, FGF, VEGF, IGF, ascorbic acid, EGF, GA, heparin and hydrocortisone. The cells were grown normally in the growth medium for 24 hr at 37 degrees C. and 5% CO2. The cells were then rinsed with RPMI-1% BSA and starved for 1-2 hrs. The stock solutions of all the compounds were made at a concentration of 10 mg/ml in DMSO and diluted in RPMI-1% BSA at a final concentrations of 1 to 12 microgram/ml. The cells were then washed and treated with the compounds and incubated for another 24 hr at 37 degrees C. Then ^3H thymidine (0.5 microgram/ml in RPMI-BSA) was added to the cells and incubated at 37 degrees C. for 4 to 5 hours. The unincorporated thymidine was removed by washing the cells four times with 1× PBS. Then the cells were lysed with 0.5M NaOH for 30 min and the radioactivity counted in the beta counter. […]

SMILES: CS(=O)(=O)n1ccc(C=Cc2cccs2)n1 [1-(methylsulfonyl)-3-(2-(2-thienyl)vinyl)-1H-pyrazole]
- Stimulation/Inhibition at 10 microg/ml (result in words): Not significant
- activation at 5 µg/mL: 74%

SMILES: CCc1cn(C(=O)C(C)(C)C)nc1-c1c(F)cccc1F [1-[3-(2,6-difluorophenyl)-4-ethyl-1H-pyrazol-1-yl]-2,2-dimethylpropan-1-one]
- Stimulation/Inhibition at 10 microg/ml (result in words): not significant
- activation at 5 µg/mL: 58%

SMILES: CC(C)(C)C(=O)n1ccc(C=Cc2cccs2)n1 [2,2-dimethyl-1-(3-(2-(2-thienyl)vinyl)-1H-pyrazole-1-yl)propan-1-one]
- Stimulation/Inhibition at 5 microg/ml (result in words): No effect
- activation at 10 µg/mL: 55%

SMILES: N#Cc1c(Cl)cccc1Oc1ccc(-c2ccnn2Cc2ccc(Cl)cc2)cc1 [2-chloro-6-(4-(1-(4-chlorobenzyl)-1H-pyrazol-5-yl)phenoxy)benzonitrile]
- activation at 5 µg/mL: 60%
- activation at 10 µg/mL: 90%

SMILES: Cc1onc(-c2c(Cl)cccc2Cl)c1C(=O)NN [3-(2,6-dichlorophenyl)-5-methylisoxazole-4-carbohydrazide]
- Activity at 2 microgram/ml Without HGF/SF (result in words) (2 microgram/ml, without HGF/SF): not significant

SMILES: CCc1c[nH]nc1-c1c(F)cccc1F [3-(2,6-difluorophenyl)-4-ethyl-1H-pyrazole]
- Stimulation at 5 microg/ml: two fold stimulation
- activation at 10 µg/mL: 86%

SMILES: C=C(C)Cc1c(C)nn(S(=O)(=O)c2ccccc2)c1O [3-methyl-4-(2-methylallyl)-1-(phenylsulfonyl)-1H-pyrazol-5-ol]
- Stimulation at 5 microg/ml: two fold stimulation
- Stimulation/Inhibition at 10 microg/ml (result in words): Not significant

SMILES: Cc1nn(S(=O)(=O)c2ccccc2Cl)c(C)c1-c1csc2ccc(Cl)cc12 [4(5-chlorobenzo(b)thiophen-3-yl)-1-(2-chlorophenyl)sulfonyl)-3,5dimethyl-1-H-pyrazole]
- Stimulation at 5 microg/ml: 1.8 fold stimulation
- Stimulation/Inhibition at 10 microg/ml (result in words): Not significant

SMILES: Cc1nn(-c2ccccc2)c(O)c1Cc1c(Cl)cccc1Cl [4-(2,6-dichlorobenzyl)-3-methyl-1-phenyl-1H-pyrazol-5-ol]
- Stimulation at 5 microg/ml: 2.3 fold stimulation
- Stimulation at 10 microg/ml: two fold stimulation

SMILES: Cc1nn(S(=O)(=O)c2ccc(Cl)c(Cl)c2)c(C)c1Cc1c(F)cccc1Cl [4-(2-chloro-6-fluorobenzyl)-1-((3,4-dichlorophenyl)sulfonyl)-3,5-dimethyl-1H-pyrazole]
- Activity at 2 microgram/ml Without HGF/SF: stimulation (2 microgram/ml, without HGF/SF, stimulation of HUVEC proliferation): 73%

SMILES: Cc1nn(S(=O)(=O)c2cc(C(F)(F)F)cc(C(F)(F)F)c2)c(C)c1Cc1c(F)cccc1Cl [4-(2-chloro-6-fluorobenzyl)-1-{[3,5-di(trifluoromethyl)phenyl]sulfonyl}-3,5-dimethyl-1H-pyrarole]
- Stimulation at 5 microg/ml: 3.1 fold stimulation
- Stimulation at 10 microg/ml: 2.4 fold stimulation

SMILES: CNC(=O)n1nc(C)c(Cc2csc3ccc(Cl)cc23)c1C [4-[(5-chloro-1-benzothiophen-3-yl)methyl]-N,3,5-trimethyl-1H-pyrazole-1-carboxamide]
- Stimulation at 5 microg/ml: two fold stimulation
- Stimulation at 10 microg/ml: two fold stimulation

SMILES: Cc1nn(C(=O)Nc2ccc(Cl)cc2Cl)c(C)c1Cc1csc2ccc(Cl)cc12 [4-[(5-chloro-1-benzothiophen-3-yl)methyl]-N-(2,4-dichlorophenyl)-3,5-dimethyl-1H-pyrazole-1-carboxamide]
- activation at 5 µg/mL: 75%
- activation at 10 µg/mL: 35%

SMILES: O=C(c1ccc(Cl)cc1)n1ccc(C(c2ccccc2)c2ccccc2)n1 [(3-benzhydryl-1H-pyrazol-1-yl)(4-chlorophenyl)methanone]
- Stimulation/Inhibition at 5 microg/ml (result in words): No effect
- activation at 10 µg/mL: 25%
